From patent publication US11952610B2, “Digital microbiology” (priority 2016, dated 2024)
Values after ≈ are worked out from the molar mass of the structure shown. Where two headings read alike, the source gives them in different places.

Assays:
S. aureus ATCC®43300™ [1] = test: Antimicrobial susceptibility testing in water-in-oil droplets, strain with or without induction of resistance; conditions: for MIC: Staphylococcus aureus
Method: They comprised Escherichia coli (ATCC®25922™), Staphylococcus aureus (ATCC®29212™), Enterococcus faecalis (ATCC®29212™) and Candida albicans (ATCC®24433™). […] This strain is known to carry an heterogeneous resistance phenotype was also used with or without induction with cephalosporins.
Each strain was stored as −80° C. frozen stock. Except when indicated, after overnight cultures in Trypto-casein-soy broth (TCS; Bio-Rad, Marnes 1a Coquette, France), all bacterial strains were started from the same adjusted turbidity which was equivalent to 1:100 of a 0.5 McFarland in TCS. For the Candida albicans, the starting turbidity was equivalent to a 1:10 of a 0.1 McFarland.
Droplets were prepared according to the manufacturer instructions (Bio-Rad) using QX200™ Droplet Generation Oil for EvaGreen (+surfactant) with the mixing parameters adjusted for sample volume and approximate number of microorganisms. Turbidity adjusted cultures were diluted in aqueous-phase reagents with a known concentration of antibiotic or antifungal agents in a 1:1 ratio of TCS culture to aqueous phase reagents (v/v, 10 μL/10 μL).
As soon as the droplets were prepared, the cartridges, protected by an adhesive film, were directly incubated at 37° C. (at 30° C. for the C. albicans).
After 4 and 6 hours of incubation, droplets were pipetted and introduced into cell counting slides (Bio-Rad). The microorganisms were then observed in the droplets using a microscope (objective 100× or 400×). The approximate counts of droplets carrying microorganisms as their growth inside the droplets were reported.
The minimal inhibitory concentration (MIC) was determined as the lowest concentration of an antimicrobial agent that prevents visible growth of a microorganism (i.e. a total absence of bacteria or a total absence of fungal growth observable in droplets using the microscope).

S. aureus ATCC®43300™ [2] = conditions: cited from earlier work
MRSA ATCC BAA 2312 = test: Droplets with labeled anti-PBP2a antibody, BSA +/- cefoxitin: growth and labeling; format: cell-based, Staphylococcus aureus; conditions: 3 h at 37° C.
Method: In another experiment, an anti-PBP2a antibody (Biosource clone M0071933) that recognizes PBP2a indicative of the resistance against methicillin in Staphylococcus aureus (SA) was labeled using Kit Lynx LNK174PETR (Abd Serotec). […] After incubation at 37° C. for 3 hours, the samples were read using the ZOE™ Fluorescent Cell Imager (Bio-Rad Laboratories). The tables below show growth (visible) and labeling (fluorescence) obtained for the tested strains of MSSA and MRSA.

S. aureus ATCC®29213™ [3] = test: Antimicrobial susceptibility testing in water-in-oil droplets, microscope reading; format: cell-based, Staphylococcus aureus; conditions: for Growth in droplets (observation in words): 2 mg/L
Method: (at 30° C. for the C. albicans).

S. aureus ATCC®29213™ [4] = conditions: cited from earlier work
bacteria or yeast = test: Turbidity of a culture over time in the presence and absence of PI; format: cell-based; conditions: presence vs absence of PI
Method: FIGS. 13A and 13B are a sample of SA+PI without FOX after 6 h of incubation. FIGS. 14A-14C are SA+PI+0.25 mg/L FOX after 6 h of incubation. FIGS. 15A-15C are SA+PI+0.5 mg/L FOX after 6 h of incubation. FIGS. 16A-16C are SA+PI+4 mg/L FOX after 6 h of incubation. PI is excluded from viable cells and penetrates the cell membranes of dead or dying cells. […] Intercalating agents are considered toxic for cell growth because they react with DNA, blocking the replication of the cells.

[5] = system: Aspergillus restrictus CECT 20807; test: Inhibition of mold growth outside the droplet aqueous phase, antifungal in oil phase; format: cell-based; conditions: YCG broth
[6] = system: usual foodborne mold strains; test: as above; format: cell-based; conditions: 40 to 100 mg/L in the oil for EvaGreen, 28° C., 24 to 48 hours
Method: (§1) Usual foodborne mold strains were grown until the sporulation state (usually for 5 to 7 days) on the appropriate culture medium at 28° C. Spores were then scraped into 0.05% Tween 80 sterile solution. The collected suspensions were filtered on several layers of gauze compressed to eliminate most of the hyphae and mycelium fragments. When necessary, the suspensions were kept under stirring in the dark and at room temperature before the filtration step to ensure optimal spore release from the fungal structures. The spore concentration was determined in a hemocytometer chamber and/or by plating on agar Petri plates.
(§2) The suspensions were then centrifuged for 5 minutes at 10.000 rpm and the supernatants discarded. The pellets were resuspended with the appropriate volume of YGC broth containing 30% of glycerol and the aliquots were stored at −20° C. for up to 6 months.
(§3) Aliquots were thawed at room temperature and washed once in YGC broth to remove glycerol. The spores were then diluted to the concentration of 10^5 spores/mL in YGC broth containing 5% of Pluronic F68 surfactant.
(§4) Dicloran stock solution was prepared at 40 mg/mL in acetone. The stock solution was then diluted to produce working solutions according to table below.
(§5) A volume of 10 μL of the appropriate working solution was then added to 2 mL of Oil for Eva Green to reach the targeted final concentrations (0.5% v/v) (see the table below).
(§6) For droplet generation using the QX200™ Droplet generator, the ‘sample’ and ‘oil’ wells of a DG8 cartridge were respectively filled with […], of the prepared spore suspension (with or without CFDA) and 70 μL of the Oil for Eva Green (with or without Dicloran). After the generation process, the droplet emulsions (30-35 μL/well) were transferred to a 96-well Eppendorf plate and placed at 28° C. for 24 to 48 hours.

[7] = system: Erotium rubrum CECT 20807; test: as above; format: cell-based
Method: as §1, §2, §3, §4, §5, §6

[8] = system: Mucor racemosus CECT 20821; test: as above; format: cell-based; conditions: YCG broth, 48 hours
Method: as §1, §2, §3, §4, §5, §6

[9] = system: Fusarium graminearum DSM 1096; format: cell-based; conditions: 100 mg/L in the oil phase, YCG broth, 48 hours
[10] = system: Penicillium hirsutum ATCC 16025; test: Inhibition of mold growth outside the droplet aqueous phase, antifungal in oil phase; format: cell-based; conditions: 80 mg/L in the oil phase, YCG broth, 24 hours

For `CO[C@@]1(NC(=O)Cc2cccs2)C(=O)N2C(C(=O)O)=C(COC(N)=O)CS[C@@H]21` [Cefoxitin], the “Growth in droplets (observation in words)” value (from here on “Growth in droplets”) (S. aureus ATCC®43300™ [1]; 4 mg/L, 4 h w/o induction) was “No growth”, the “Growth in droplets” value (S. aureus ATCC®43300™ [1]; 4 mg/L, 4 h with induction) was “Limited growth” and the “Growth in droplets” value (S. aureus ATCC®43300™ [1]; 4 mg/L, 6 h w/o induction) was “Limited growth (few”. For the same compound, the “Growth in droplets” value (S. aureus ATCC®43300™ [1]; 4 mg/L, 6 h with induction) was “Limited growth”, the “Growth in droplets” value (S. aureus ATCC®43300™ [1]; 8 mg/L, 4 h with induction) was “Limited growth in few” and the “Growth in droplets” value (S. aureus ATCC®43300™ [1]; 8 mg/L, 6 h w/o induction) was “No growth”. For the same compound, the “Growth in droplets” value (S. aureus ATCC®43300™ [1]; 8 mg/L, 6 h with induction) was 1 droplet with cells, the “Growth in droplets” value (S. aureus ATCC®43300™ [1]; 16 mg/L, 4 h with induction) was “Very limited growth” and the “Growth in droplets” value (S. aureus ATCC®43300™ [1]; 16 mg/L, 6 h with induction) was “No growth”. The “Growth in droplets” value (S. aureus ATCC®43300™ [1]; 32 mg/L, 4 h with induction) was “No growth”, the MIC (S. aureus ATCC®43300™ [1]; ATCC43300, read-out: Observed MIC, using non induced strain) was 2 to 4 µg/mL (≈ 4.68 to 9.36 µM) and the MIC (S. aureus ATCC®43300™ [1]; ATCC43300, read-out: Observed MIC, with induced strain) was 16 to 32 µg/mL (≈ 37.4 to 74.9 µM). For the same compound, the “Expected MIC (JCM)” value (S. aureus ATCC®43300™ [2]) was 16 to 32 µg/mL, the “Growth (visible)” value (MRSA ATCC BAA 2312; BSA 0 + FOX 2 mg/L) was “Growth +<” and the “Growth (visible)” value (MRSA ATCC BAA 2312; BSA 2.5% + FOX 2 mg/L) was “Growth +>”. For the same compound, the “Growth in % of droplets” value (S. aureus ATCC®29213™ [3]; 0.5 mg/L, reading time 4 h) was 20-30% of droplets, the “Growth in % of droplets” value (S. aureus ATCC®29213™ [3]; 1 mg/L, reading time 4 h) was ~20% of droplets and the “Growth in % of droplets” value (S. aureus ATCC®29213™ [3]; 1 mg/L, reading time 6 h) was “Growth in <50% of”. For the same compound, the “Growth in droplets” value (S. aureus ATCC®29213™ [3]; reading time 4 h) was “No growth”, the “Growth in droplets” value (S. aureus ATCC®29213™ [3]; reading time 6 h) was “No growth” and the MIC (S. aureus ATCC®29213™ [3]; Staphylococcus aureus, ATCC29213, droplets at 37° C., read after 4 and 6 h, read-out: Observed MIC) was 2 µg/mL (≈ 4.68 µM). The “Expected MIC (CLSI)” value (S. aureus ATCC®29213™ [4]) was 1 to 4 µg/mL.
With `CC[N+](C)(CC)CCC[n+]1c(-c2ccccc2)c2cc(N)ccc2c2ccc(N)cc21.[I-].[I-]` [PI, propidium iodide] the “Impact on growth of bacteria or yeast” value (bacteria or yeast) was “only a limited impact”.
With `Nc1c(Cl)cc([N+](=O)[O-])cc1Cl` [dicloran, 2,6-dichloro-4-nitroaniline] the “Mold growth outside the aqueous phase” value ([5]; 80 mg/L in the oil phase, 24 hours) was “inhibition of mold growth outside the aqueous phase”, the “Mold growth outside the aqueous phase” value ([5]; 100 mg/L in the oil phase, 48 hours) was “inhibition of mold growth outside the aqueous phase” and the “Hyphae spreading and mold growth outside the droplet” value [6] was “the hyphae spreading was inhibited and mold growth was confined within the droplet”. For the same compound, the “Mold growth outside the aqueous phase” value ([7]; 60 mg/L in the oil phase, YCG broth, 24 hours) was “inhibition of mold growth outside the aqueous phase”, the “Mold growth outside the aqueous phase” value ([7]; 80 mg/L in the oil phase, 5,6 carboxyfluorescein diacetate (25 mg/L) in the broth) was “inhibition of Erotium rubrum CECT 20807 growth outside the aqueous phase” and the “Mold growth outside the aqueous phase” value ([7]; 80 mg/L in the oil phase, YCG broth, 48 hours) was “inhibition of mold growth outside the aqueous phase”. The “Mold growth outside the aqueous phase” value ([8]; 40 mg/L in the oil phase) was “inhibition of mold growth outside the aqueous phase”, the “Mold growth outside the aqueous phase” value ([8]; 60 mg/L in the oil phase) was “inhibition of mold growth outside the aqueous phase” and the “Mold growth outside the aqueous phase” value [9] was “inhibition of mold growth outside the aqueous phase”. The “Mold growth outside the aqueous phase” value [10] was “inhibition of mold growth outside the aqueous phase”.
